Source: publication PMC8709997, “Long-term memory T cells as preventive anticancer immunity elicited by TuA-derived heteroclitic peptides” (Journal of Translational Medicine, 2021)
Where “and” joins values, the source holds several entries; their conditions need not be identical. Equal entries are not always repeated.

What was measured:
H-2 Db molecule = H-2 Db molecule (Mus musculus, UniProt P01899); experiment: Peptide binding to H-2 Db on TAP-deficient RMA-S cells (flow cytometry); format: cell-based, murine; details: RMA-S cells loaded with sub-optimal 1 μM peptide, mean fluorescence intensity
Procedure: In order to experimentally confirm the binding and stability of heteroclitic peptides to H-2 Db molecule, the H-2 Db positive RMA-S cell line was loaded with a sub-optimal concentration of 1 μM of peptides.
Supplementary file 12967_2021_3194_MOESM1_ESM.pptx: Additional file 1: Fig. S1. Predicted affinity of wt and hPep peptides. The affinity to H2-Db were predicted by NetMHCpan 4.1 for wt and heteroclitic peptides. The affinity (Aff) values are expressed in nanomolarity (nM). The selected hPep peptides are indicated for both E7 and Trp2 peptides. Fig. S2. Experimental affinity of wt and hPep peptides. Binding to H2-Db molecule was assessed in TAP-deficient RMA-S cells loaded with the indicated peptides. Mean fluorescence intensity at flow cytometer indicates binding levels of peptides to HLA molecules. Fig. S3. Comparison of short-term and long-term immunization. The curve of tumor growth in the short-term and long-term immunization experiments for the B16 (A) and TC1 (B) is indicated for each individual animal. The Kaplan-Meyer curves for the B16 (C) and TC1 (D) is indicated.

[1] = system: TC-1 tumor cells expressing HPV16 E7 protein; experiment: Preventive immunization and TC1 tumor challenge; format: in vivo, C57BL/6 mice
Procedure: (§1) C57BL/6 (H-2-Db) female mice, 8 weeks old, were purchased from Harlan (Udine, Italy). All animals were housed at the Animal Facility of the Istituto Nazionale Tumori “Pascale” (Naples, Italy). Mice were housed in number of 2–3 per cage and maintained in a conventional facility on a 12 h light:12 h dark cycle (lights on at 7:00 a.m.) in a temperature-controlled room (22 ± 2 °C) and with food and water ad libitum at all times. The experimental protocols were in compliance with the European Communities Council directive (86/609/EEC).
(§2) Mouse melanoma B16F10 (ATCC, CRL-6323) cells were cultured in DMEM medium supplemented with 10% heat inactivated FBS, 100 U/ml penicillin and […] streptomycin (Invitrogen, Carlsbad, CA) at 37 °C with 5% CO2. Cells were tested for mycoplasma before inoculation in mice (ATCC®, 30-1012 K™). Mouse lung TC-1 tumor cells expressing HPV16 E7 protein (ATCC, CRL-2493), were cultured in RPMI medium supplemented with 10% heat inactivated FBS, 100 U/ml penicillin and […] streptomycin (Invitrogen, Carlsbad, CA), HEPES 10 mM, MEM 0.1 mM and Na Piruvate 1 mM at 37 °C with 5% CO2.
(§3) B16F10 and TC1 cells were harvested in exponential growth phase by trypsinization and washed twice with ice-cold PBS. C57BL/6 mice were subcutaneously injected with 5 × 10^4 and 1 × 10^5 cells/mouse of B16F10 or TC1 respectively on the right back flank. A cell aliquot (200μL) containing 1 × 10^6 cells was loaded in 21G syringes for intra-splenic injection. The tumor size was measured and documented every two days with a caliper, starting on day 7, and calculated using the formula (AxB^2)/2 (A as the largest and B is the smallest diameter of tumor). Tumor growth was documented as mean tumor size with standard error. To record the survival of the tumor-bearing mice, either natural death or a tumor diameter greater than 1500 mm^3 leading to death was counted as death.
(§4) Cyclophosphamide (CTX) (Endoxan®, Baxter) (10 mg/Kg) and Paclitaxel (PTX) (Taxol®, BMS) (5 mg/Kg) diluted with phosphate-buffered saline (PBS) were administered via intraperitoneal injection (i.p.). The dose was extrapolated to human equivalent dose (HED). Metronomic Chemotherapy was weekly administered one day before the vaccine administration until the end of the experiment. An anti-mouse PD-1 MAb (BioXCell, West Lebanon, NH USA) was used as checkpoint inhibitor (CI) and administered via intraperitoneal injection (i.p.) at a dose of 100 μg.
Preventive experimental setting was performed as follow: C57BL/6 mice were immunized once a week for 4 weeks by subcutaneous administration (s.c.) with WT 100ug or a mix of equimolar ratio of heteroclitic peptides (100 ug tot) formulated in 50ug PolyI:C. At the end of the immunization protocol, a group of animals were implanted with of B16F10 or TC1 cell lines (short-term memory group). In parallel, a second group was left for 2 months without any further treatment before implantation of the same number of cells (long-term memory group). Immunizations were performed in combination with metronomic chemotherapy (MCT) and CI [24–26]. One group was treated only with MCT and CI (MCT + CI group). Control mice were treated with endotoxin-free phosphate-buffered saline (PBS). At the time of sacrifice, whole blood was collected by puncture of the sinus retro-orbital vein prior analgesia with oxybuprocaine chlorhydrate (Fig. 1).
Animals were immunized in a preventative setting with either the wt or the heteroclitic E7 and Trp2 peptides. At the end of the full vaccination protocol, animals were challenged with 5 × 10^5 TC1 or 1 × 10^4 B16 tumor cells, respectively.
In order to assess the anti-tumor efficacy of the long-term memory induced by the vaccination, animals were left free of active immunization for 2 months. Animals were then challenged with 5 × 10^5 TC1 or 1 × 10^4 B16 tumor cells, respectively. […] Similarly, in the TC1 model, the long-term immunity was unable to control tumor growth as for the short-term immune response. […]

IFN-γ secreting T cells [2] = experiment: IFN-γ ELISpot on PBMCs, TC1 experimental group; format: cell-based, C57BL/6 mice; details: PBMC pools re-stimulated with 10 ug/ml single peptides
Procedure: (§5) ELISPOT was performed according to BD Biosciences manufacturer instructions (BD ELISPOT Mouse IFN-γ ELISPOT Set cod. 551,083). 5 × 10^5 splenocytes or 2 × 10^5 PBMCs from pooled samples were counted, plated in each well and stimulated with 10ug/ml of single peptides used for the immunization and incubated for 24-26 h. As negative and positive control, peptide diluents PBS and 5ug/ml of phorbol myristate acetate (PMA, Sigma-Aldrich) were used respectively. Plates were read with an AID EliSpot Reader Systems (AID GmbH, Strassberg, Germany). The results were calculated as spot forming counts as a mean of a duplicate count from the specific antigen stimulation minus the negative control.
(§6) Fig. 5 Immunological evaluation in the short-term immunization. Blood samples were drawn during the experiment from retro-orbital veins and PBMCs were isolated. Interferon-γ (IFN-γ) secreting T cells were evaluated in vitro after O/N re-stimulation with individual peptides. Pool of samples were used for each experimental groups. A and B B16 group; C and D TC1 group. SFU IFN-γ spot forming units
Fig. 7 Immunological evaluation in the long-term immunization. Blood samples were drawn during the experiment from retro-orbital veins and PBMCs were isolated. Interferon-γ (IFN-γ) secreting T cells were evaluated in vitro after O/N re-stimulation with individual peptides. […]

IFN-γ secreting T cells [3] = experiment: IFN-γ ELISpot on PBMCs, B16 experimental group; format: cell-based, C57BL/6 mice; details: for vaccine-specific IFN-γ immune response: PBMC pools re-stimulated with 10 ug/ml single peptides; for cross-reactivity with the wt: PBMC pools, IFN-γ ELISpot
Procedure: as §5, §6
as §6, with “7” for “5”, “long-term” for “short-term”, “A–C” for “A and B”, “D–F” for “C and D”, “WT NEG animals in the WT group with no sign of tumor growth, HET NEG animals in the Heteroclitic group with no sign of tumor growth” for “SFU IFN-γ spot forming units”

B16F10 cells = experiment: Preventive immunization and B16 tumor challenge; format: in vivo, C57BL/6 mice
Procedure: as §1, §2, §3, §4
Preventive experimental setting was performed as follow: C57BL/6 mice were immunized once a week for 4 weeks by subcutaneous administration (s.c.) with WT 100ug or a mix of equimolar ratio of heteroclitic peptides (100 ug tot) formulated in 50ug PolyI:C. […]

[4] = long-term: TC1 challenge 2 months after vaccination

Sequence of H-2 Db molecule (P01899 whole entry, looked up): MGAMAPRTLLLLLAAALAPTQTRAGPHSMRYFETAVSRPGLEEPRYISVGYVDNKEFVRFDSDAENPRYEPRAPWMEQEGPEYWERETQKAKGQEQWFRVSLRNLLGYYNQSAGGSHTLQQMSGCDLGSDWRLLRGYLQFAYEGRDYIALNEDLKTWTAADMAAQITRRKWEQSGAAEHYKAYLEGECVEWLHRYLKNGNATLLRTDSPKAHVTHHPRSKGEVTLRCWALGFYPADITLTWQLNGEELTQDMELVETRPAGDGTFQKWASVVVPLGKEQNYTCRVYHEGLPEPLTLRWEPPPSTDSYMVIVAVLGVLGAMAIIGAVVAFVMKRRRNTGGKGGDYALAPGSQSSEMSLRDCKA

RAHANIVTF [A4-E7, heteroclitic E7 peptide, Y4 to A substitution]
binding to the H2-Db molecule relative to wt (H-2 Db molecule): equivalent or higher than the wt

RAHYHIVTF [H5-E7, heteroclitic E7 peptide, N5 to H substitution]
binding to the H2-Db molecule relative to wt (H-2 Db molecule): complete loss of binding

RAHYNIVTF [WT-E7]
animals still alive (n/N) [1, 4]: 3/7
tumor-free animals [1, 4]: 1
effect on tumor growth ([1]; long-term: TC1 challenge 2 months after vaccination, compared to controls): significantly delayed
animals showing late tumor growth ([1]; short-term TC1, growth at day 42 and day 51 post-challenge, follow up to day 60, data not shown): two animals
survival ([1]; short-term: TC1 challenge at end of vaccination): 100%
effect on tumor growth ([1]; short-term: TC1 challenge at end of vaccination, up to day 34): completely inhibit the tumor growth

RAIYNIVTF [I3-E7, heteroclitic E7 peptide, H3 to I substitution]
binding to the H2-Db molecule relative to wt (H-2 Db molecule): equivalent or higher than the wt
vaccine-specific IFN-γ immune response (IFN-γ secreting T cells [2]; long-term setting): immunodominant
vaccine-specific IFN-γ immune response (IFN-γ secreting T cells [2]; short-term setting): immunodominant

SVCDFFVWL [C3-Trp2, heteroclitic Trp2 peptide, Y3 to C substitution]
binding to the H2-Db molecule relative to wt (H-2 Db molecule): equivalent binding

SVYAFFVWL [A4-Trp2, heteroclitic Trp2 peptide, D4 to A substitution]
binding to the H2-Db molecule relative to wt (H-2 Db molecule): equivalent binding
vaccine-specific IFN-γ immune response (IFN-γ secreting T cells [3]; long-term setting): immunodominant
cross-reactivity with the wt (IFN-γ secreting T cells [3]; long-term setting): low cross-reactivity
vaccine-specific IFN-γ immune response (IFN-γ secreting T cells [3]; short-term setting): immunodominant
cross-reactivity with the wt (IFN-γ secreting T cells [3]; short-term setting): low cross-reactivity

SVYDFFVWL [WT-Trp2]
vaccine-specific IFN-γ immune response (IFN-γ secreting T cells [3]; long-term setting): strong and comparable
vaccine-specific IFN-γ immune response (IFN-γ secreting T cells [3]; short-term setting): strong and comparable
survival of animals (B16F10 cells; long-term: B16 challenge 2 months after vaccination, day 27 post-challenge): all animals in the wt group reached the threshold for euthanasia
effect on tumor growth (B16F10 cells; short-term: B16 challenge at end of vaccination): significantly delay tumor growth
animals still alive (n/N) (B16F10 cells; short-term: B16 challenge at end of vaccination, 34 days post-challenge, 100 ug peptide s.c. weekly x4 in 50 ug PolyI:C, with MCT and CI): 2/6
animals still alive / survival (B16F10 cells; short-term: B16 challenge at end of vaccination, 34 days post-challenge, with PolyI:C, MCT and CI): 33.3% and 33%

SVYDNFVWL [N5-Trp2, heteroclitic Trp2 peptide, F5 to N substitution]
binding to the H2-Db molecule relative to wt (H-2 Db molecule): much better than the wt
